Molecular target: T1, human recombinant CCR4 receptor (Homo sapiens, UniProt P51679)
T1 construct: Brussels, Belgium; host or cells: CHO-K1
T1 sequence (P51679 1-360): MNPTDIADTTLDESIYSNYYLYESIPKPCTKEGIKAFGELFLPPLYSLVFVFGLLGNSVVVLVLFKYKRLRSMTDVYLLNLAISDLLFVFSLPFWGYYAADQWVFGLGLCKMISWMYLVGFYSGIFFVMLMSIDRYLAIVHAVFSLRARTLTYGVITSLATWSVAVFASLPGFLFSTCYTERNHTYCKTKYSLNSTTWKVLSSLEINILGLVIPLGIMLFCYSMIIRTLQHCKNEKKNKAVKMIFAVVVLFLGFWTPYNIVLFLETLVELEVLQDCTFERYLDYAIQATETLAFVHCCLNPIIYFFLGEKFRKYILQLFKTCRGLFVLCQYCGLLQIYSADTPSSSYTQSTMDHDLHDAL
Assay: FMAT whole cell binding assay (FB-MDC binding to CHO-K1 cells expressing CCR4)
Details: inhibition of FB-MDC binding to CHO-K1 cells expressing human recombinant CCR4; two hours incubation at room temperature; mean
Description: FMAT Whole Cell Binding Assay
CHO-K1 cells stably expressing the human recombinant CCR4 receptor (Euroscreen; Brussels, Belgium) were cultured in NUT.MIX.F—12(HAM) medium with glutamax-1, containing 10% (v/v) foetal bovine serum and 400 μg ml^−1 geneticin
Cells were harvested at approximately 70% confluence by treatment with a cell dissociation buffer, and seeded at 5×10^3 cells/100 μl culture medium into wells of a black Costar clear-bottomed 96-well microtitre plates. Plates were incubated overnight at 37° C. in 5% CO2 and used the following day.
Before use, the cell plates were washed twice with 100 μl Hanks balanced salt solution (HBSS). To each well was then added 65 μl of HBSS, 10 μL of 10% DMSO in HBSS±test compound and then 25 μL of 2.8 nM FB-MDC (Applied Biosystems). This fluorescent probe was prepared from a 10 μM stock in 0.08% (v/v) TFA/16% (v/v) acetonitrile, diluted into HBSS.
After two hours incubation in the dark at room temperature, the plates were analysed in an FMAT8100 reader (Applied Biosystems) to measure fluorescence that was associated with binding of FB-MDC to the cells. Compound activity was determined as an pIC50 [log(concentration of compound that results in 50% inhibition)], comparing fluorescence in control and background wells.

Structure (SMILES)	IC50 [nM]
COc1nc(SC[C@H](N)C(N)=O)cnc1NS(=O)(=O)c1cccc(Cl)c1Cl [Example 4, (2R)-2-Amino-3-[[5-[[(2,3-dichlorophenyl)sulfonyl]amino]-6-methoxypyrazinyl]thio]propanamide]	631
COc1nc(SCC(O)c2nccs2)cnc1NS(=O)(=O)c1cccc(Cl)c1Cl (centres unmarked) [Example 15, 2,3-Dichloro-N-[5-[[2-hydroxy-2-(2-thiazolyl)ethyl]thio]-3-methoxypyrazinyl]-benzenesulfonamide]	398

System: not given
Assay: not given
Details: not given

Structure (SMILES)	melting point [°C]
COc1nc(SCC(O)c2ccncc2)cnc1NS(=O)(=O)c1cccc(Cl)c1Cl (centres unmarked) [Example 23, 2,3-Dichloro-N-[5-[[2-hydroxy-2-(4-pyridinyl)ethyl]thio]-3-methoxypyrazinyl]benzenesulfonamide]	176 to 177
CNC(=O)[C@@H](N)CSc1nc(OC)c(NS(=O)(=O)c2cccc(Cl)c2Cl)nc1Cl [Example 28, (2R)-2-Amino-3-[[3-chloro-5-[[(2,3-dichlorophenyl)sulfonyl]amino]-6-methoxypyrazinyl]thio]-N-methylpropanamide]	150 to 155
COc1nc(SC[C@H](N)C(=O)O)cnc1NS(=O)(=O)c1cccc(Cl)c1Cl [Example 3, S-[5-[[(2,3-Dichlorophenyl)sulfonyl]amino]-6-methoxypyrazinyl]-L-cysteine]	180 to 190
COc1nc(SC[C@H](N)C(=O)O)c(Cl)nc1NS(=O)(=O)c1cccc(Cl)c1Cl [Example 9, S-[3-Chloro-5[[(2,3-dichlorophenyl)sulfonyl]amino]-6-methoxypyrazinyl]-L-cysteine]	170 to 173
COc1nc(SCC(N)c2ccccn2)cnc1NS(=O)(=O)c1cccc(Cl)c1Cl (centres unmarked) [Example 26, N-[5-[[2-Amino-2-(2-pyridinyl)ethyl]thio]-3-methoxypyrazinyl]-2,3-dichlorobenzenesulfonamide]	172 to 174
COc1nc(SCC(O)CO)cnc1NS(=O)(=O)c1cccc(Cl)c1Cl (centres unmarked) [Example 19, 2,3-Dichloro-N-[5-[(2,3-dihydroxypropyl)thio]-3-methoxypyrazinyl]benzenesulfonamide]	136 to 138
COc1nc(SCC(N)c2nccn2C)cnc1NS(=O)(=O)c1cccc(Cl)c1Cl (centres unmarked) [Example 27, N-[5-[[2-Amino-2-(1-methyl-1H-imidazol-2-yl)ethyl]thio]-3-methoxypyrazinyl]-2,3-dichlorobenzenesulfonamide]	187 to 189
COc1nc(SCC(O)c2ccccc2)cnc1NS(=O)(=O)c1cccc(Cl)c1Cl (centres unmarked) [Example 20, 2,3-Dichloro-N-[5-[(2-hydroxy-2-phenylethyl)thio]-3-methoxypyrazinyl]benzenesulfonamide]	141 to 143
COc1nc(SC[C@H](N)C(N)=O)cnc1NS(=O)(=O)c1cccc(Cl)c1Cl [Example 4, (2R)-2-Amino-3-[[5-[[(2,3-dichlorophenyl)sulfonyl]amino]-6-methoxypyrazinyl]thio]propanamide]	148 to 152
CNC(=O)[C@@H](N)CSc1cnc(NS(=O)(=O)c2cccc(Cl)c2Cl)c(OC)n1 [Example 5, (2R)-2-Amino-3-[[5-[[(2,3-dichlorophenyl)sulfonyl]amino]-6-methoxypyrazinyl]thio]-N-methyl-propanamide]	160 to 164
COc1nc(SCC(N)c2nccs2)cnc1NS(=O)(=O)c1cccc(Cl)c1Cl (centres unmarked) [Example 30, N-[5-[[2-Amino-2-(2-thiazolyl)ethyl]thio]-3-methoxypyrazinyl]-2,3-dichlorobenzenesulfonamide]	168 to 169
COc1nc(SC[C@H](N)CO)c(Cl)nc1NS(=O)(=O)c1cccc(Cl)c1Cl [Example 10, N-[5-[[(2R)-2-Amino-3-hydroxypropyl]thio]-6-chloro-3-methoxypyrazinyl]-2,3-dichlorobenzenesulfonamide]	255 to 256
COc1nc(SC[C@H](N)C(=O)N(C)C)cnc1NS(=O)(=O)c1cccc(Cl)c1Cl [Example 6, (2R)-2-Amino-3-[[5-[[(2,3-dichlorophenyl)sulfonyl]amino]-6-methoxypyrazinyl]thio]-N,N-dimethylpropanamide]	187 to 190
COc1nc(SCC(O)c2ccccn2)cnc1NS(=O)(=O)c1cccc(Cl)c1Cl (centres unmarked) [Example 24, 2,3-Dichloro-N-[5-[[2-hydroxy-2-(2-pyridinyl)ethyl]thio]-3-methoxypyrazinyl]benzenesulfonamide]	143 to 145
COc1nc(SCC(O)c2cccnc2)cnc1NS(=O)(=O)c1cccc(Cl)c1Cl (centres unmarked) [Example 21, 2,3-Dichloro-N-[5-[[2-hydroxy-2-(3-pyridinyl)ethyl]thio]-3-methoxypyrazinyl]benzenesulfonamide]	188 to 190
COC(=O)[C@@H](N)CSc1cnc(NS(=O)(=O)c2cccc(Cl)c2Cl)c(OC)n1 [Example 2, S-[5[[(2,3-Dichlorophenyl)sulfonyl]amino]-6-methoxypyrazinyl]-L-cysteine, methyl ester]	170 to 174
COC(=O)[C@@H](N)CSc1nc(OC)c(NS(=O)(=O)c2cccc(Cl)c2Cl)nc1C	164 to 168
COC(=O)[C@@H](O)CSc1cnc(NS(=O)(=O)c2cccc(Cl)c2Cl)c(OC)n1 [Example 25, 3-[[5[[(2,3-Dichlorophenyl)sulfonyl]amino]-6-methoxypyrazinyl]thio]-(2R)-2-hydroxypropanoic acid, methyl ester]	88 to 90
COC(=O)[C@@H](N)CSc1nc(OC)c(NS(=O)(=O)c2cccc(Cl)c2Cl)nc1Cl [Example 8, S-[3-Chloro-5-[[(2,3-dichlorophenyl)sulfonyl]amino]-6-methoxypyrazinyl]-L-cysteine, methyl ester]	170 to 173
CNC(=O)[C@@H](N)CSc1nc(OC)c(NS(=O)(=O)c2cccc(Cl)c2Cl)nc1C [Example 29, (2R)-2-Amino-3-[[5[[(2,3-dichlorophenyl)sulfonyl]amino]methoxy-3-methylpyrazinyl]thio]-N-methylpropanamide]	68 to 80
COc1nc(SCC(N)c2cccnc2)cnc1NS(=O)(=O)c1cccc(Cl)c1Cl (centres unmarked) [Example 22, N-[5-[[2-Amino-2-(3-pyridinyl)ethyl]thio]-3-methoxypyrazinyl]-2,3-dichloro benzenesulfonamide]	175 to 178

Reference: US20060122195A1, “Sulphonamide compounds that modulate chemokine receptor activity (ccr4)” (priority 2003, published 2006)
